Assay results from patent US9999222B2, “Herbicidal combination comprising azines” (BASF SE, priority 2014, dated 2018).
Values joined by “and” are separate entries in the source; they are usually repeats but may differ in a detail not shown here. Equal entries are not always repeated. Where two headings read alike, the source gives them in different places.

Tests used:
Test in all cases: Greenhouse test, pre-emergence treatment
ALOMY = format: in vivo, Alopecurus myosuroides; settings: pre-emergence, pre-emergence
How it was run: (§1)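 Seeds were sown in loamy sand with about 3.0% humus, and compounds in water were sprayed immediately after sowing, alone or as combinations formulated as 10% emulsion concentrates. Plants grew under hoods until rooted, at 10-25 °C or 20-35 °C by species, for 2 to 4 weeks. Damage was scored 0-100 (100 = no emergence or complete destruction), and Colby expected values were E=X+Y−(X·Y/100).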

ECHCG = format: in vivo, Echinocloa crus-galli
How it was run: as §1

POLCO = format: in vivo, Polygonum convolvulus; settings: pre-emergence
How it was run: as §1

SETVI = format: in vivo, Setaria viridis
From the text: The culture containers used were plastic flowerpots containing loamy sand with approximately 3.0% of humus as the substrate. The seeds of the test plants were sown separately for each species.
For the pre-emergence treatment, the active ingredients, which had been suspended or emulsified in water, were applied directly after sowing by means of finely distributing nozzles. The containers were irrigated gently to promote germination and growth and subsequently covered with transparent plastic hoods until the plants had rooted. This cover caused uniform germination of the test plants, unless this had been impaired by the active ingredients.
Depending on the species, the plants were kept at 10-25° C. or 20-35° C., respectively.
The test period extended over 2 to 4 weeks. During this time, the plants were tended, and their response to the individual treatments was evaluated.
Evaluation was carried out using a scale from 0 to 100. 100 means no emergence of the plants, or complete destruction of at least the aerial moieties, and 0 means no damage, or normal course of growth. A moderate herbicidal activity is given at values of at least 60, a good herbicidal activity is given at values of at least 70, and a very good herbicidal activity is given at values of at least 85.
The respective stated components a and b, and if appropriate, c were formulated as a 10% by weight strength emulsion concentrate and, with addition of the amount of solvent system, introduced into the spray liquor used for applying the active compound.
In the examples, the solvent used was water.
In the examples below, using the method of S. R. Colby (1967) “Calculating synergistic and antagonistic responses of herbicide combinations”, Weeds 15, p. 22ff., the value E, which is expected if the activity of the individual active compounds is only additive, was calculated. E=X+Y−(X·Y/100) where • X=percent activity using active compound a at an application rate A; • Y=percent activity using active compound b at an application rate B; • E=expected activity (in %) by a+b at application rates A+B.
If the value found experimentally is higher than the value E calculated according to Colby, a synergistic effect is present.

AVEFA = format: in vivo, Avena fatua; settings: Avena fatua, pre-emergence, 480 h, pre-emergence, read-out: observed % activity 20 DAT
How it was run: as §1

BRADC = format: in vivo, Brachiaria decumbens; settings: pre-emergence, pre-emergence
How it was run: as §1

COMBE = format: in vivo, Commelina benghalensis; settings: pre-emergence
How it was run: as §1

ELEIN = format: in vivo, Eleusine indica
How it was run: as §1

EPHHL = format: in vivo, Euphorbia heterophylla; settings: pre-emergence
How it was run: as §1

GALAP = format: in vivo, Galium aparine; settings: pre-emergence
How it was run: as §1

GERPU = format: in vivo, Geranium pusillum; settings: pre-emergence
How it was run: as §1

KCHSC = format: in vivo, Kochia scoparia; settings: pre-emergence
How it was run: as §1

LOLMU = format: in vivo, Lolium multiflorum; settings: pre-emergence, pre-emergence
How it was run: as §1

PHACA = format: in vivo, Phalaris canariensis; settings: Phalaris canariensis, pre-emergence, 480 h, pre-emergence, read-out: observed % activity 20 DAT
How it was run: as §1

CENCY = format: in vivo
[1] = Alopecurus myosuroides, 480 h, 2 g ai/ha, read-out: observed % activity 20 DAT
[2] = Echinochloa crus-galli, 480 h, 4 g ai/ha, read-out: observed % activity 20 DAT
[3] = Fallopia convolvulus, 480 h, 4 g ai/ha, read-out: observed % activity 20 DAT
[4] = Commelina benghalensis, 480 h, 4 g ai/ha, read-out: observed % activity 20 DAT
[5] = Euphorbia heterophylla, 480 h, 8 g ai/ha, read-out: observed % activity 20 DAT
[6] = Galium aparine, 480 h, 4 g ai/ha, read-out: observed % activity 20 DAT
[7] = Galium aparine, 480 h, 8 g ai/ha, read-out: observed % activity 20 DAT
[8] = Bassia scoparia, 480 h, 4 g ai/ha, read-out: observed % activity 20 DAT
[9] = Bassia scoparia, 480 h, 8 g ai/ha, read-out: observed % activity 20 DAT
[10] = Lolium multiflorum, 480 h, 2 g ai/ha, read-out: observed % activity 20 DAT
[11] = Lolium multiflorum, 480 h, 8 g ai/ha, read-out: observed % activity 20 DAT

Nc1nc(Nc2c(F)c(F)cc(F)c2F)nc(C2(F)CCCC2)n1 [compound 9, 6-(1-fluorocyclopentyl)-N4-(2,3,5,6-tetrafluorophenyl)-1,3,5-triazine-2,4-diamine]
inhibition at 2 g/ha (ALOMY; [1]): 75%
pest or weed control at 2 g/ha (ALOMY; [1]): 75%
pest or weed control at 8 g/ha (ALOMY; Alopecurus myosuroides, 480 h, 8 g ai/ha, read-out: observed % activity 20 DAT): 98%
observed % activity 20 DAT (ALOMY; 2 g ai/ha): 70%
observed % activity 20 DAT (ALOMY; 4 g ai/ha): 45%
observed % activity 20 DAT (ECHCG; 2 g ai/ha): 70%
inhibition at 2 g/ha (ECHCG; Echinochloa crus-galli, 480 h, 2 g ai/ha, read-out: observed % activity 20 DAT): 75%
inhibition at 4 g/ha (ECHCG; [2]): 90%
pest or weed control at 4 g/ha (ECHCG; [2]): 85%
pest or weed control at 4 g/ha (POLCO; [3]): 20%
pest or weed control at 8 g/ha (POLCO; Fallopia convolvulus, 480 h, 8 g ai/ha, read-out: observed % activity 20 DAT): 80%
inhibition at 8 g/ha (POLCO; Fallopia convolvulus, 480 h, POLCO, individual, use rate 8 g ai/ha, read-out: observed % activity 20 DAT): 50%
inhibition at 16 g/ha (POLCO; Fallopia convolvulus, 480 h, POLCO, individual, use rate 16 g ai/ha, read-out: observed % activity 20 DAT): 70%
inhibition at 4 g/ha (POLCO; [3]): 20%
inhibition at 16 g/ha (POLCO; Fallopia convolvulus, 480 h, 16 g ai/ha, read-out: observed % activity 20 DAT): 80%
observed % activity 20 DAT (POLCO; 8 g ai/ha): 75%
observed % activity 20 DAT (SETVI; 2 g ai/ha): 90%
observed % activity 20 DAT (SETVI; 4 g ai/ha): 90%
inhibition at 2 g/ha (SETVI; Setaria viridis, 480 h, 2 g ai/ha, read-out: observed % activity 20 DAT): 70%
inhibition at 4 g/ha (SETVI; Setaria viridis, 480 h, 4 g ai/ha, read-out: observed % activity 20 DAT): 80%
inhibition at 2 g/ha (AVEFA; 2 g ai/ha): 0%
inhibition at 8 g/ha (AVEFA; 8 g ai/ha): 0%
inhibition at 2 g/ha (BRADC; Urochloa decumbens, 480 h, 2 g ai/ha, read-out: observed % activity 20 DAT): 20%
inhibition at 4 g/ha (BRADC; Urochloa decumbens, 480 h, 4 g ai/ha, read-out: observed % activity 20 DAT): 55%
inhibition at 8 g/ha (BRADC; Urochloa decumbens, 480 h, 8 g ai/ha, read-out: observed % activity 20 DAT): 35%
observed % activity 20 DAT (BRADC; 4 g ai/ha): 40%
observed % activity 20 DAT (COMBE; COMBE, individual, use rate 16 g ai/ha): 35% and 15%
pest or weed control at 4 g/ha (COMBE; [4]): 25%
pest or weed control at 8 g/ha (COMBE; Commelina benghalensis, 480 h, 8 g ai/ha, read-out: observed % activity 20 DAT): 65%
inhibition at 8 g/ha (COMBE; Commelina benghalensis, 480 h, COMBE, individual, use rate 8 g ai/ha, read-out: observed % activity 20 DAT): 20%
inhibition at 4 g/ha (COMBE; [4]): 25%
inhibition at 16 g/ha (COMBE; Commelina benghalensis, 480 h, 16 g ai/ha, read-out: observed % activity 20 DAT): 20%
observed % activity 20 DAT (COMBE; 16 g ai/ha): 35%
observed % activity 20 DAT (ELEIN; 2 g ai/ha): 95%
inhibition at 2 g/ha (ELEIN; Eleusine indica, 480 h, 2 g ai/ha, read-out: observed % activity 20 DAT): 95%
inhibition at 4 g/ha (ELEIN; Eleusine indica, 480 h, 4 g ai/ha, read-out: observed % activity 20 DAT): 98%
observed % activity 20 DAT (EPHHL; EPHHL, individual, use rate 8 g ai/ha): 30%
inhibition at 8 g/ha (EPHHL; Euphorbia heterophylla, 480 h, EPHHL, individual, use rate 8 g ai/ha, read-out: observed % activity 20 DAT): 25%
inhibition at 16 g/ha (EPHHL; Euphorbia heterophylla, 480 h, EPHHL, individual, use rate 16 g ai/ha, read-out: observed % activity 20 DAT): 15%
pest or weed control at 4 g/ha (EPHHL; Euphorbia heterophylla, 480 h, 4 g ai/ha, read-out: observed % activity 20 DAT): 25%
inhibition at 8 g/ha (EPHHL; [5]): 10%
pest or weed control at 8 g/ha (EPHHL; [5]): 10%
inhibition at 16 g/ha (EPHHL; Euphorbia heterophylla, 480 h, 16 g ai/ha, read-out: observed % activity 20 DAT): 20%
observed % activity 20 DAT (GALAP; GALAP, individual, use rate 8 g ai/ha): 50%
pest or weed control at 4 g/ha (GALAP; [6]): 55%
pest or weed control at 8 g/ha (GALAP; [7]): 90%
inhibition at 8 g/ha (GALAP; Galium aparine, 480 h, GALAP, individual, use rate 8 g ai/ha, read-out: observed % activity 20 DAT): 70%
inhibition at 16 g/ha (GALAP; Galium aparine, 480 h, GALAP, individual, use rate 16 g ai/ha, read-out: observed % activity 20 DAT): 60%
inhibition at 4 g/ha (GALAP; [6]): 55%
inhibition at 8 g/ha (GALAP; [7]): 70%
inhibition at 16 g/ha (GALAP; Galium aparine, 480 h, 16 g ai/ha, read-out: observed % activity 20 DAT): 60%
observed % activity 20 DAT (GERPU; GERPU, individual, use rate 16 g ai/ha): 30% and 60%
inhibition at 8 g/ha (GERPU; Geranium pusillum, 480 h, GERPU, individual, use rate 8 g ai/ha, read-out: observed % activity 20 DAT): 40%
pest or weed control at 4 g/ha (GERPU; Geranium pusillum, 480 h, 4 g ai/ha, read-out: observed % activity 20 DAT): 20%
inhibition at 8 g/ha (GERPU; Geranium pusillum, 480 h, 8 g ai/ha, read-out: observed % activity 20 DAT): 40%
observed % activity 20 DAT (GERPU; 16 g ai/ha): 60% and 30%
pest or weed control at 4 g/ha (KCHSC; [8]): 50%
pest or weed control at 8 g/ha (KCHSC; [9]): 85%
inhibition at 7 g/ha (KCHSC; Bassia scoparia, 480 h, KCHSC, individual, use rate 7 g ai/ha, read-out: observed % activity 20 DAT): 75%
inhibition at 8 g/ha (KCHSC; Bassia scoparia, 480 h, KCHSC, individual, use rate 8 g ai/ha, read-out: observed % activity 20 DAT): 90%
inhibition at 16 g/ha (KCHSC; Bassia scoparia, 480 h, KCHSC, individual, use rate 16 g ai/ha, read-out: observed % activity 20 DAT): 90%
inhibition at 4 g/ha (KCHSC; [8]): 70%
inhibition at 8 g/ha (KCHSC; [9]): 75%
inhibition at 16 g/ha (KCHSC; Bassia scoparia, 480 h, 16 g ai/ha, read-out: observed % activity 20 DAT): 90%
observed % activity 20 DAT (KCHSC; KCHSC, individual, use rate 16 g ai/ha): 80%
observed % activity 20 DAT (KCHSC; 16 g ai/ha): 80%
inhibition at 2 g/ha (LOLMU; [10]): 0%
pest or weed control at 2 g/ha (LOLMU; [10]): 0%
inhibition at 8 g/ha (LOLMU; [11]): 75%
pest or weed control at 8 g/ha (LOLMU; [11]): 75%
observed % activity 20 DAT (LOLMU; 8 g ai/ha): 80%
inhibition at 2 g/ha (PHACA; 2 g ai/ha): 0%
pest or weed control at 2 g/ha (PHACA; 2 g ai/ha): 0%
inhibition at 8 g/ha (PHACA; 8 g ai/ha): 50%
pest or weed control at 8 g/ha (PHACA; 8 g ai/ha): 70%
observed % activity 20 DAT (CENCY; 8 g ai/ha): 35%
inhibition at 4 g/ha (CENCY; 480 h, 4 g ai/ha, read-out: observed % activity 20 DAT): 40%
inhibition at 8 g/ha (CENCY; 480 h, 8 g ai/ha, read-out: observed % activity 20 DAT): 20%
inhibition at 16 g/ha (CENCY; 480 h, 16 g ai/ha, read-out: observed % activity 20 DAT): 10%
